# Results taken from ChEMBL document CHEMBL4715914, “Chemical validation of a druggable site on Hsp27/HSPB1 using in silico solvent mapping and biophysical methods” (Bioorg Med Chem, 2021).
# Activity calls are given as the source filed them. No cut-off for these calls is given here.
# Key:
# [1] = target: Heat shock protein beta-1 (Homo sapiens, UniProt P04792); test: Binding affinity to HSP27 (79 to 176 residues) (unknown origin) expressed in Escherichia coli BL21 (DE3) cells by HSQC NMR analysis; conditions: for Kd: read-out: Kd(app)
# [2] = Binding affinity to HSP27 C59A mutant (79 to 176 residues) (unknown origin) expressed in Escherichia coli BL21 (DE3) cells by HSQC NMR analysis; set-up: species or system Homo sapiens; conditions: read-out: Kd(app)
# [3] = Binding affinity to HSP27 L21A mutant (79 to 176 residues) (unknown origin) expressed in Escherichia coli BL21 (DE3) cells by HSQC NMR analysis; set-up: species or system Homo sapiens; conditions: read-out: Kd(app)
# [4] = Binding affinity to HSP27 H46A mutant (79 to 176 residues) (unknown origin) expressed in Escherichia coli BL21 (DE3) cells by HSQC NMR analysis; set-up: species or system Homo sapiens; conditions: read-out: Kd(app)
# [5] = Binding affinity to HSP27 T61L mutant (79 to 176 residues) (unknown origin) expressed in Escherichia coli BL21 (DE3) cells by HSQC NMR analysis; set-up: species or system Homo sapiens; conditions: read-out: Kd(app)
# [6] = Binding affinity to HSP27 V23A mutant (79 to 176 residues) (unknown origin) expressed in Escherichia coli BL21 (DE3) cells by HSQC NMR analysis; set-up: species or system Homo sapiens; conditions: read-out: Kd(app)
# [7] = Binding affinity to HSP27 I56A mutant (79 to 176 residues) (unknown origin) expressed in Escherichia coli BL21 (DE3) cells by HSQC NMR analysis; set-up: species or system Homo sapiens; conditions: read-out: Kd(app)
# Heat shock protein beta-1, sequence (P04792 whole entry, the tested form may be a part): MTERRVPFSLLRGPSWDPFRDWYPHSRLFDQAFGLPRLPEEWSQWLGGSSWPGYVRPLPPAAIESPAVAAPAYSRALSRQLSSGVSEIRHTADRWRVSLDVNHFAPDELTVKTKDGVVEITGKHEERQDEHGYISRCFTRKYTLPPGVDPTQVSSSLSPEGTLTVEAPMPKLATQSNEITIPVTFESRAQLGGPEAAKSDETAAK
compound,measurement,setting,value
Nc1cccnc1Oc1ccc(F)cc1F,Kd,[1],> 1000 µM
O=[N+]([O-])c1cccnc1Oc1ccc(I)cc1,Kd(app),[1],inactive
O=[N+]([O-])c1ccc(Oc2ccc(F)cc2F)c([N+](=O)[O-])c1,Kd,[2],67 µM
same,Kd,[3],42 µM
same,Kd,[4],240 µM
same,Kd,[5],32 µM
same,Kd,[6],69 µM
same,Kd,[7],63 µM
O=[N+]([O-])c1cccnc1Oc1ccc(F)cc1F,Kd,[1],177 µM
O=[N+]([O-])c1cc(Oc2ccc(F)cc2F)ccc1Oc1ccc(F)cc1F,Kd(app),[1],inactive
O=C(Oc1ccc(F)cc1F)c1ccc([N+](=O)[O-])cc1,Kd(app),[1],inactive
